# PMC6984391, “Anion carriers as potential treatments for cystic fibrosis: transport in cystic fibrosis cells, and additivity to channel-targeting drugs” (Chemical Science, 2019)
# “Also recorded” adds a separate entry of the source. Where two headings read alike, the source gives them in different places.
# Columns and labels:
# [1] = Affinity to Cl- by 1H NMR titration with Bu4N+Cl- in DMSO-d6/H2O (200:1); format: binding; settings: 1H NMR titration with Bu4N^+Cl^– in DMSO-d6/H2O (200 : 1) at 298 K; new compound
# Procedure: The binding constant to chloride was assessed using 1H NMR titrations with n-Bu4N+Cl- in DMSO-d6/H2O (200:1). The hygroscopic guest n-Bu4N+Cl- and the host compounds were dried under high vacuum to remove residual solvents or water prior to solution preparation. The concentration of the host was around 1 mM in all titrations; the concentration of guest and the volumes of the aliquots of guest solution added to the host solution were varied o ver the experiments. The guest solutions contained the same concentrations of host as the starting host solution (i.e., n-Bu4N+Cl- was dissolved in a solution of ~1 mM host in DMSO-d6/H2O (200:1)), […]
# NMR titration binding studies were performed using a Varian 500b NMR spectrometer at 298
# K. The shift of both NH signals in DMSO were fitted to 1:1 binding model using a least -squares fitting procedure in a custom -made Excel spreadsheet .
# Figure S6. Downfield region of the 1H NMR spectra from the titration of tetrabutylammonium chloride into 12 […]
# (§1) (1 picture or pasted object on this page, not shown here)
# [2] = system: YFP-FRT cells; assay: IncuCyte ZOOM live-cell viability (DRAQ7) in YFP-FRT cells; format: cell-based
# Procedure: For cytotoxicity studies, we used YFP-CFBE and YFP-FRT cells. […]
# To evaluate the viability of YFP -FRT cells, we used the IncuCyte ZOOM TM (Essen Bioscience (now Sartorius), Welwyn Garden City, UK) live-cell analysis system. YFP-FRT cells were seeded in 96-well plates at a density of 4000 cells well-1 and allowed to grow for 48 h at 37 °C in a humidified atmosphere of 5% CO2. Then, the YFP-FRT culture media was replaced with fresh culture media containing test anionophores or the vehicle (DMSO 0.5% v v-1) and deep red anthraquinone 7 (DRAQ7; Biostatus, Shepshed, UK) was added following the manufacturer’s instructions before the YFP-FRT cells were transferred to the IncuCyte ZOOMTM. At 2 h intervals over a 24 h period, 4 images of each well on 96-well plates were acquired; the phase contrast images were used to determine the total number of cells per well, while the fluorescence images to identify the number of dead cells with nuclei labelled red by DRAQ7. In each experiment, one data point is the average value from four wells. […]
# To investigate further the cytotoxicity of anionophores 12, 15 and 19 we used YFP-FRT cells. As a control we tested compound 11. Using the IncuCyte ZOOMTM (Essen Bioscience) live-cell analysis system and the membrane impermeable far-red fluorescent DNA dye DRAQ7 to label the nuclei of dead cells, we examined the effects of the anionophores 11, 12, 15 and 19 on the viability of YFP -FRT cells over a 24 h period. Consistent with our previous results (Fig.
# S23 and ref 10), compound 11 had little effect on cell viability. Only at the highest concentrations tested (30 and 50 µM) and at time points later than 12 h (50 µM) or 14 h (30 µM) did cytotoxicity become apparent ( P < 0.05 vs. DMSO 0.5% v v -1) (Fig. S24). By contrast, the same concentrations of compounds 12, 15 and 19 had cytotoxic effects from 2 h with […]
# 19 (10 µM) from 8 h onwards (P < 0.05 vs. DMSO 0.5% v v -1) (Fig. S24).
# [3] = design: method as in ref [16 and 25], [20], [21], [22], [23], [24], [29] (Reference column); settings: 1H NMR titrations with Bu4N^+Cl^– in DMSO-d6/H2O (200 : 1) at 298 K; ref [16 and 25], [20], [21], [22], [23], [24], [29]; cited from earlier work
# [4] = design: method as in PMID 22461434, PMID 21846096, PMID 29786913; settings: mol% carrier to lipid for 50% Cl^– efflux in 270 s; 490 mM NaCl inside, 490 mM NaNO3 outside; ref [22], [16 and 25]; cited from earlier work
# [5] = system: YFP-CFBE cells; assay: XTT cell viability assay in YFP-CFBE cells; format: cell-based; settings: for cytotoxicity in YFP-CFBE cells (XTT): 1–50 μM, 18 h at 37 °C; for IC50: XTT, 18 h treatment, fit of first order regression (Fig. S23), read-out: half-maximal inhibitory concentration (IC50), cell viability
# Procedure: For cytotoxicity studies, we used YFP-CFBE and YFP-FRT cells. YFP-CFBE cells were seeded in 96-well plates at a density of 5 x 10^4 cells/well and cultured at 37 °C in a humidified atmosphere of 5% CO2. Thirty hours after seeding the cells, different concentrations of anionophores were added to the culture media and the cells were incubated with anionophores for 18 h. To assay cell viability, we used the XTT Cell Proliferation Assay Kit (ATCC) according to the manufacturer’s instructions. The specific absorbance of test samples was measured using a Microplate Spectrophotometer (SpectraMax 190, Molecular Devices, Sunnyvale, CA, USA). In each experiment, multiple replicates (12 – 25 wells from 3 – 5 plates) were tested for each concentration of anionophore. […]
# To evaluate the cytotoxicity of anionophores 11, 12, 15 and 19, we treated YFP-CFBE cells with the anionophores (1 – 50 µM) in DMSO for 18 h at 37 °C before assessing cell viability using sodium 2,3, -bis(2-methoxy-4-nitro-5-sulfophenyl)-5-[(phenylamino)-carbonyl]-2H-tetrazolium) (XTT). Figure S23 summarises the resu lts. Although compounds […]
# as §1
# [6] = design: method as in ref [20], [23] (Reference column); settings: extraction of Et4N^+Cl^– from water into chloroform at 303 K; ref [20], [23]; cited from earlier work
# [7] = 10 μM, 24 h period, P < 0.05 vs. DMSO
# [8] = 30 μM, 24 h period, P < 0.05 vs. DMSO
# [9] = 50 μM, 24 h period, P < 0.05 vs. DMSO
compound,measurement,setting,value
CCOC(=O)[C@]12CC[C@@H](NC(=S)Nc3ccc([N+](=O)[O-])cc3)C[C@@H]1C[C@@H](NC(=S)Nc1ccc([N+](=O)[O-])cc1)CC2 [Compound 12],K a to Cl^– in DMSO,[1],1.7 × 10^3 M^–1
same,time points at which cytotoxicity is apparent,"[2]; rat, 24 h, 30 µM",≥ 2 h
same,time points at which cytotoxicity is apparent,"[2]; rat, 24 h, 50 µM",≥ 2 h
FC(F)(F)c1ccc(NC(=S)NCCN(CCNC(=S)Nc2ccc(C(F)(F)F)cc2)CCNC(=S)Nc2ccc(C(F)(F)F)cc2)cc1 [Compound 18],K a to Cl^– in DMSO,[3],9.6 × 10^2 M^–1
same,"EC50, 270 s",[4],0.077 mol%
FC(F)(F)c1cc(NC(=S)NCCN(CCNC(=S)Nc2cc(C(F)(F)F)cc(C(F)(F)F)c2)CCNC(=S)Nc2cc(C(F)(F)F)cc(C(F)(F)F)c2)cc(C(F)(F)F)c1 [Compound 19],cytotoxicity in YFP-CFBE cells (XTT),[5],some cytotoxicity; also recorded: strongest effect
same,IC50,[5],38 µM
same,toxicity (IncuCyte ZOOM),[2]; 10 μM,some cell death
same,time points at which cytotoxicity is apparent,[2]; [7],≥ 8 h
same,time points at which cytotoxicity is apparent,[2]; [8],≥ 2 h
same,time points at which cytotoxicity is apparent,[2]; [9],≥ 2 h
same,K a to Cl^– in DMSO,[3],4.4 × 10^3 M^–1
same,"EC50, 270 s",[4],0.042 mol%
CCOC(=O)[C@]12CC[C@@H](NC(=S)Nc3cc(C(F)(F)F)cc(C(F)(F)F)c3)C[C@@H]1C[C@@H](NC(=S)Nc1cc(C(F)(F)F)cc(C(F)(F)F)c1)CC2 [Compound 15],cytotoxicity in YFP-CFBE cells (XTT),[5],some cytotoxicity
same,IC50,[5],> 50 µM
same,time points at which cytotoxicity is apparent,"[2]; 5 μM, 24 h period, P < 0.05 vs. DMSO",≥ 2 h
same,toxicity (IncuCyte ZOOM),[2]; 10 μM,some cell death
same,time points at which cytotoxicity is apparent,[2]; [7],≥ 2 h
same,time points at which cytotoxicity is apparent,[2]; [8],≥ 2 h
same,time points at which cytotoxicity is apparent,[2]; [9],≥ 2 h
same,K a to Cl^– in CHCl3,[6],4.7 × 10^8 M^–1
same,K a to Cl^– in DMSO,[3],2.4 × 10^3 M^–1
